ChEMBL document CHEMBL2157879, “Improving the affinity of naphthalene diimide ligand to telomeric DNA by incorporating Zn²⁺ ions into its dipicolylamine groups” (Bioorg Med Chem, 2012)
Active and inactive are the calls of the source. No cut-off for these calls is given here.

How the values were obtained:
[1] = system: Nucleic Acid; assay: Binding affinity to AGGG(TTAGGG)3 G-quadruplex in Tris-HCl buffer by spectrophotometric titration method in presence of 100 mM KCl; format: nucleic-acid assay
[2] = system: Nucleic Acid; assay: Binding affinity to TAGGG(TTAGGG)3 G-quadruplex in Tris-HCl buffer by spectrophotometric titration method in presence of 100 mM KCl; format: nucleic-acid assay
[3] = system: Nucleic Acid; assay: Binding affinity to AGGG(TTAGGG)3 G-quadruplex in Tris-HCl buffer assessed as change in melting temperature at 3 uM by CD titration method in presence of 100 mM KCl; format: nucleic-acid assay
[4] = system: Nucleic Acid; assay: Binding affinity to TAGGG(TTAGGG)3 G-quadruplex in Tris-HCl buffer assessed as change in melting temperature at 3 uM by CD titration method in presence of 100 mM KCl; format: nucleic-acid assay
[5] = system: Nucleic Acid; assay: Binding affinity to AGGG(TTAGGG)3 G-quadruplex in Tris-HCl buffer by UV-vis spectrophotometric titration method in presence of 100 mM KCl; format: nucleic-acid assay
[6] = system: Nucleic Acid; assay: Binding affinity to AGGG(TTAGGG)3 G-quadruplex in Tris-HCl buffer assessed as change in melting temperature at 3 uM by CD titration method in presence of 100 mM NaCl; format: nucleic-acid assay
[7] = system: Nucleic Acid; assay: Binding affinity to TAGGG(TTAGGG)3 G-quadruplex in Tris-HCl buffer assessed as change in melting temperature at 3 uM by CD titration method in presence of 100 mM NaCl; format: nucleic-acid assay
[8] = target: Telomerase reverse transcriptase (Homo sapiens, UniProt O14746); assay: Inhibition of telomerase-mediated primer elongation by gel electrophoresis-based TRAP assay
[9] = system: Nucleic Acid; assay: Binding affinity to biotin-labeled AGGG(TTAGGG)3 at 1 to 960 nM by SPR analysis in presence of 0.15 mM NaCl; format: nucleic-acid assay
[10] = system: Nucleic Acid; assay: Binding affinity to biotin-labeled TAGGG(TTAGGG)3 at 1 to 960 nM by SPR analysis in presence of 0.15 mM NaCl; format: nucleic-acid assay
[11] = system: Nucleic Acid; assay: Binding affinity to biotin-labeled AGGG(TTAGGG)3 at 1 to 960 nM by SPR analysis in presence of […]; format: nucleic-acid assay
[12] = system: Nucleic Acid; assay: Binding affinity to biotin-labeled TAGGG(TTAGGG)3 at 1 to 960 nM by SPR analysis in presence of […]; format: nucleic-acid assay
[13] = system: Nucleic Acid; assay: Binding affinity to TAGGG(TTAGGG)3 G-quadruplex in Tris-HCl buffer by UV-vis spectrophotometric titration method in presence of 100 mM KCl; format: nucleic-acid assay
[14] = system: Nucleic Acid; assay: Binding affinity to ds AGGG(TTAGGG)3 in Tris-HCl buffer after 2 hrs by UV-vis spectrophotometric titration method in presence of 100 mM KCl; format: nucleic-acid assay
[15] = system: Nucleic Acid; assay: Binding affinity to ds AGGG(TTAGGG)3 in Tris-HCl buffer assessed as melting temperature at DNA/compound molar ratio 1:2 by CD titration method in presence of 100 mM KCl (reference value: 58 degC); format: nucleic-acid assay
[16] = system: Nucleic Acid; assay: Stabilization of TAGGG(TTAGGG)3 G-quadruplex in Tris-HCl buffer at DNA/ligand molar ratio 1 to 4 by CD titration method 100 mM KCl; format: nucleic-acid assay
[17] = system: Nucleic Acid; assay: Stabilization of AGGG(TTAGGG)3 G-quadruplex in Tris-HCl buffer at DNA/ligand molar ratio 1 to 4 by CD titration method in presence of 100 mM KCl; format: nucleic-acid assay

Chain of Telomerase reverse transcriptase (O14746 whole entry): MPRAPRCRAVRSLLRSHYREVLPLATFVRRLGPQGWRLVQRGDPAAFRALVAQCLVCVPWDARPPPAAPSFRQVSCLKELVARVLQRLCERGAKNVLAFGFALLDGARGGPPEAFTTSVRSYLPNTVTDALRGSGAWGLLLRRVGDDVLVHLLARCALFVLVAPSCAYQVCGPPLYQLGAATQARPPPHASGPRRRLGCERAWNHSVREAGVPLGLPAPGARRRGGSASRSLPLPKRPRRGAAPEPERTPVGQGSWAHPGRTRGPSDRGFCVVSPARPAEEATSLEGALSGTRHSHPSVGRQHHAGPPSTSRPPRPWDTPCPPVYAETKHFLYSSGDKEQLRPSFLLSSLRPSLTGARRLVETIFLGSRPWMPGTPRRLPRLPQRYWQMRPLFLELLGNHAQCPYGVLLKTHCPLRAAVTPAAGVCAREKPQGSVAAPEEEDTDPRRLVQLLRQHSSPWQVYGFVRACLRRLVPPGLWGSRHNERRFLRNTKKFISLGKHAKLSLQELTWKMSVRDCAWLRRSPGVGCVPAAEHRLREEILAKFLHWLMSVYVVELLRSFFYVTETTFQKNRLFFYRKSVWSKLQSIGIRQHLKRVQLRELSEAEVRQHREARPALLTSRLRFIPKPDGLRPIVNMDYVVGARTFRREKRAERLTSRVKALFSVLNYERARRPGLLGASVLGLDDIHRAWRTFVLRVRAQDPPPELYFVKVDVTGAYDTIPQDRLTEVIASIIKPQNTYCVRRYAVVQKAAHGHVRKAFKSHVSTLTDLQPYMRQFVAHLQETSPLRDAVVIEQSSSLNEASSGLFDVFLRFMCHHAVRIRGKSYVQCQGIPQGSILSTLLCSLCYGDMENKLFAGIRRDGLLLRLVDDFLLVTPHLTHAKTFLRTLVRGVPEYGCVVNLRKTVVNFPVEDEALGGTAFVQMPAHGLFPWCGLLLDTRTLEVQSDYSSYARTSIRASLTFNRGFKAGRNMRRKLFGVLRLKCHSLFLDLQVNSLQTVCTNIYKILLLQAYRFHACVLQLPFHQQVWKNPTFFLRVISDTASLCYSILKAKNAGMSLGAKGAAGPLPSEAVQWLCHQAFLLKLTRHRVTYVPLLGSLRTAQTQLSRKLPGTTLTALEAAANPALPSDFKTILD

K [1]: 1.1 µM | K [2]: 2.8 µM | ΔTm [3]: 12 °C | ΔTm [4]: 13 °C | Activity [5]: inactive | ΔTm [6]: 1 °C | ΔTm [7]: 1 °C | EC50 [8]: 4 µM | Activity [9]: inactive | Activity [10]: inactive | Activity [11]: Active | Activity [12]: Active | Activity [13]: inactive | K [14]: 0.9 µM | Tm [15]: 66 °C | Activity [16]: Active | Activity [17]: Active
SMILES: CN(CCCN(Cc1ccccn1)Cc1ccccn1)CCCN1C(=O)c2ccc3c4c(ccc(c24)C1=O)C(=O)N(CCCN(C)CCCN(Cc1ccccn1)Cc1ccccn1)C3=O
